Measured values from paper PMC12291119, “In Vitro Selection of Cyclized, Glycosylated Peptide Antigens That Tightly Bind HIV High Mannose Patch Antibodies” (ACS Central Science, 2025).
Numbered stars: 1 amine (or outer) side, 2 acyl side, 3 side chain; on linkers, the order of the positions; unused ones are H or OH. Bridge positions count the residues as written; N and C are the ends. Square brackets hold non-standard residues; d marks the D form. Ends that are not written are not given here. * marks the point of attachment. X1 = CC(=O)N[C@@H]1[C@@H](O)[C@H](O[C@@H]2O[C@H](CO)[C@@H](O[C@@H]3O[C@H](CO[C@H]4O[C@H](CO[C@H]5O[C@H](CO)[C@@H](O)[C@H](O)[C@@H]5O[C@H]5O[C@H](CO)[C@@H](O)[C@H](O)[C@@H]5O)[C@@H](O)[C@H](O[C@H]5O[C@H](CO)[C@@H](O)[C@H](O)[C@@H]5O[C@H]5O[C@H](CO)[C@@H](O)[C@H](O)[C@@H]5O)[C@@H]4O)[C@@H](O)[C@H](O[C@H]4O[C@H](CO)[C@@H](O)[C@H](O)[C@@H]4O[C@H]4O[C@H](CO)[C@@H](O)[C@H](O)[C@@H]4O[C@H]4O[C@H](CO)[C@@H](O)[C@H](O)[C@@H]4O)[C@@H]3O)[C@H](O)[C@H]2NC(C)=O)[C@@H](CO)O[C@H]1n1cc(CC[C@H](N[*:1])C(=O)[*:2])nn1; Biotin = O=C1N[C@H]2[C@H](CS[C@H]2CCCCC(=O)*)N1; mXylylene = c1cc(C[*:1])cc(C[*:2])c1

Assays:
PGT128 = assay: Biolayer interferometry (BLI) of immobilized biotinylated glycopeptides binding to PGT128; conditions: for fold decrease in PGT128 binding relative to parent H1 glycopeptide: BLI KD compared with H1 (peptide 1)
Text: 6 Biolayer interferometry (BLI) measurement of glycopeptides immobilized via biotin on a streptavidin biosensor binding to PGT128. All sensorgrams represent a series of 2-fold dilutions of antibody with highest concentration tested labeled. All sequences followed by GSGSGK(Biotin). M denotes homopropargylglycine, modified by CuAAC as in Figure .
C. Binding Analysis of PGT Antibody-Peptide/Glycopeptide Interactions by Biolayer Interferometry
1. Biolayer Interferometry Protocol
Biotinylated glycopeptide was loaded onto a streptavidin biosensor in 250 µL buffer 1 (500 to 1000 nM […] glycopeptide in 20 mM Tris pH 7.5, 150 mM NaCl, 0.2 mg/ml BSA, 0.02% (v/v) Tween-20) for 120s in a […] of black Eppendorf tube. The sensor was then washed with 250 µL of blank buffer 1 for 120 seconds in a […] black Eppendorf tube. The sensor was washed with 250 µL buffer 3 (10 mM glycine HCl, pH 2.5) for 120 seconds in […] of black Eppendorf tube and followed by 250 µL of blank buffer 1 for 120 seconds in a […] black Eppendorf tube to immobilize glycopeptides in a range of 0.5 nm to 2 nm response. The sensor was then equilibrated with 250 µL of buffer 2 (20 mM Tris pH 7.5, 150 mM NaCl, 2 mg/ml BSA, 0.1% (v/v) Tween-20) for 120 seconds in a […] of black Eppendorf tube PGT antibody (prepared in buffer 2) was associated at several concentrations for 300 seconds in 4 µL drop holder followed by dissociation into blank 250 µL of buffer 2 for 300 seconds in […] of black Eppendorf tube. After each dissociation sensor was regenerated to remove the remaining antibody by treatment with 250 µL of buffer 3 for 120 seconds, followed by 120 seconds of wash with 250 µL buffer 1 and re-equilibration with 250 µL buffer 2 in […] of black Eppendorf tube. Throughout the experiment, the shaker rate was set at 2200 rpm. Data were fit globally to a 1:1 binding model.
2. BLI Sensorgram of H1-QQQ-non-glycosylated Peptide with PGT128
Figure S33. […]

HIV Env = conditions: read-out: reported affinities of PGT122 for HIV Env; ref number not given; cited from earlier work
Text: We performed preliminary binding assays for those sequences and others using translated peptides with or without attached glycans. No sequ ...

HIV pseudovirus panel = conditions: ref number not given, cited from earlier work
Text: We have sought to mimic HMP epitopes without using either the entire Env protein, which contains a plethora of “distracting” epitopes that easily elicit off-target antibodies; − or short glycopeptides directly derived from the Env sequence, which may not sufficiently recapitulate the HMP structure without the conformational support of the remaining Env protein. Aiming to design glycostructures that better mimic the glycan presentation in the HMP, we have pioneered various techniques for the directed evolution of DNA, , RNA, F-RNA, or peptide-supported , glycan clusters.

[1] = diverse/representative HIV pseudovirus panel

ALFKPYPKIGDIRKARC[X1]LQHTLHHRTNKQPSYRRRLKTLIPLFRRC[X1]LGSGSGK(Biotin)-NH2 (linker 17-47 via mXylylene; C-terminus assumed) [compound 2]
Kd (PGT128; BLI, peptide immobilized via biotin on streptavidin biosensor, 2-fold dilutions of PGT128 in 20 mM Tris pH 7.5, 150 mM NaCl, 2 mg/ml BSA, 0.1% Tween-20, 300 s association, 300 s dissociation, global 1:1 fit): 16.9 nM

AYTEKHNGIGDIRPAICQNSKNQNHRCNHYQIKLYIH[X1]L[X1]RLPHNYRNSGSGSGK(Biotin)-NH2 (linker 17-27 via mXylylene; C-terminus assumed) [peptide 3]
fold decrease in PGT128 binding relative to parent H1 glycopeptide (PGT128): ~2 fold

AYTEKHNGIGDIRPAIC[X1]NSKNQNHRCNHYQIKLYIHQLQRLPHNYRNSGSGSGK(Biotin)-NH2 (linker 17-27 via mXylylene; C-terminus assumed) [peptide 4]
fold decrease in PGT128 binding relative to parent H1 glycopeptide (PGT128): ~40 fold

PGT122: HIV bnAb binding the High Mannose Patch
Kd (HIV Env): 100 to 174 nM | breadth (fraction of HIV pseudovirus panel neutralized) (HIV pseudovirus panel; [1]): 65% | median IC50 (HIV pseudovirus panel; [1]): 0.05 µg/mL | potency (EC50) (HIV pseudovirus panel; neutralization potency): 0.05 µg/mL
